Where two headings read alike, the source gives them in different places. Where no end group is shown, it is not given here.
Key:
Fusarium proliferatum = test: Co-incubation (oCelloScope) assay, F. proliferatum conidial germination; assay type: cell-based
Botrytis (Strain B05.10) = test: Botrytis inhibition assay (resazurin assay); assay type: cell-based; settings: for inhibition at 1 µM: tested alone at 1 μM
Botrytis cinerea b05.10 = assay type: cell-based
[1] = system: Pseudoperonospora cubensis; test: Pseudoperonospora cubensis (cucurbit downy mildew) leaf disk assay; assay type: in vivo; settings: for Summary of CGI factor spectrum of activity: Downy Mildew
[2] = system: Fusarium graminearum (Gibberella zeae); assay type: cell-based; settings: for Inhibition: 50 micromolar; for Summary of CGI factor spectrum of activity: Fusarium graminearum
[3] = system: Fusarium oxysporum f. sp. lycopersici (Saccardo) Snyder et Hansen CBS 167.30; test: Resazurin plate co-incubation assay, F. oxysporum; assay type: cell-based; settings: for Inhibition: 50 micromolar; for Summary of CGI factor spectrum of activity: Fusarium oxysporum
[4] = tested alone at 0.2 ug/ml, 24 hours at 23° C.
[5] = tested alone at 2 ug/ml, 24 hours at 23° C.
[6] = tested alone at 0.5 uM, 24 hours at 23° C.
[7] = tested alone at 1 uM, 24 hours at 23° C.
[8] = tested alone at 0.25 uM, 24 hours at 23° C.
[9] = tested alone at 5 uM, 24 hours at 23° C.
[10] = tested alone at 0.02 ug/ml, 24 hours at 23° C.
[11] = read-out: Percent Inhibition EXP23002594
[12] = read-out: Percent Inhibition EXP23002662
[13] = 10 micromolar, 24 hours at 20° C.
[14] = 100 micromolar, 24 hours at 20° C.
[15] = Botrytis cinerea, at least one concentration tested

CON=C(C(=O)OC)c1ccccc1CON=C(C)c1cccc(C(F)(F)F)c1 [Trifloxystrobin]
Inhibition of conidial germination (Fusarium proliferatum; [4]): neither boscalid nor trifloxystrobin showed any inhibition and No | Inhibition of conidial germination (Fusarium proliferatum; [5]): neither boscalid nor trifloxystrobin showed any inhibition and No

Drosomycin (DCLSGRYKGPCAVWDNETCRRVCKEEGRSSGHCSPSLKCWCEGC; disulfide (positions not given here); not fully specified; ends not checked; also: four intramolecular disulfide bridges, pairing not given here; UniProt P41964 27-70, looked up) [44-residue antifungal peptide with four intramolecular disulfide bridges, heterologously expressed in E. coli]
Inhibition of conidial germination (Fusarium proliferatum; [6]): did not show any inhibition and No | Inhibition of conidial germination (Fusarium proliferatum; [7]): did not show any inhibition and No | Inhibition of conidial germination (Fusarium proliferatum; tested alone at 8 uM, 24 hours at 23° C.): Yes

WHWLQLKPGQPMYGGGGWHWLQLKPGQPMY (listed as Saccharomyces cerevisiae) [Pep302, S. cerevisiae Alpha-pheromone homodimer with GGGG linker]
Inhibition of conidial germination (Fusarium proliferatum; [8]): No | Inhibition of conidial germination (Fusarium proliferatum; [6]): No | Inhibition of conidial germination (Fusarium proliferatum; [7]): Yes

N#Cc1c[nH]cc1-c1cccc(Cl)c1Cl [Fenpiclonil]
Inhibition of conidial germination (Fusarium proliferatum; [9]): did not inhibit conidial germination and No | Inhibition of conidial germination (Fusarium proliferatum; tested alone at 10 uM, 24 hours at 23° C.): No | Inhibition of conidial germination (Fusarium proliferatum; tested alone at 50 uM, 24 hours at 23° C.): Yes

CC1(C)CCC(Cc2ccc(Cl)cc2)C1(O)Cn1cncn1 (stereo not shown) [Metconazole]
Inhibition of conidial germination (Fusarium proliferatum; [10]): did not show any inhibition and No | Inhibition of conidial germination (Fusarium proliferatum; [4]): No | Inhibition of conidial germination (Fusarium proliferatum; [5]): inhibited fungal growth and Yes

CC[C@H](C)C[C@H](C)CCCCCCCCC(=O)N[C@H]1C[C@@H](O)[C@@H](NCCN)NC(=O)[C@@H]2[C@@H](O)CCN2C(=O)[C@H]([C@H](O)CCN)NC(=O)[C@H]([C@H](O)[C@@H](O)c2ccc(O)cc2)NC(=O)[C@@H]2C[C@@H](O)CN2C(=O)[C@H]([C@@H](C)O)NC1=O [Caspofungin]
inhibition at 1 µM (Botrytis (Strain B05.10); read-out: Percent Inhibition EXP23002534): 1.08% | inhibition at 1 µM (Botrytis (Strain B05.10); [11]): 98.7% | inhibition at 1 µM (Botrytis (Strain B05.10); [12]): 3.1%

C[C@@H]1C/C=C/C=C/C=C/C=C/[C@H](O[C@@H]2O[C@H](C)[C@@H](O)[C@H](N)[C@@H]2O)C[C@@H]2O[C@](O)(C[C@@H](O)C[C@H]3O[C@@H]3/C=C/C(=O)O1)C[C@H](O)[C@H]2C(=O)O [Natamycin]
Inhibition of conidial germination (Fusarium proliferatum; [9]): did not show any inhibition | Inhibition of conidial germination (Fusarium proliferatum; tested alone at 5 ug/ml, 24 hours at 23° C.): No | Inhibition of conidial germination (Fusarium proliferatum; tested alone at 10 ug/ml, 24 hours at 23° C.): No | Inhibition of conidial germination (Fusarium proliferatum; tested alone at 100 ug/ml, 24 hours at 23° C.): inhibited fungal growth and Yes | inhibition at 100 µM (Botrytis (Strain B05.10); Table 20, tested alone at 100 μM (positive control), read-out: Percent Inhibition (Median)): 101% | inhibition at 100 µM (Botrytis (Strain B05.10); tested alone at 100 μM (positive control 1), read-out: Percent Inhibition EXP23002534): 100% | inhibition at 100 µM (Botrytis (Strain B05.10); tested alone at 100 μM (positive control 1), read-out: Percent Inhibition EXP23002594): 101% | inhibition at 100 µM (Botrytis (Strain B05.10); tested alone at 100 μM, read-out: Percent Inhibition EXP23002662): 101%

WHWLQLKPGQPMY (listed as Saccharomyces cerevisiae) [Pep107, S. cerevisiae Alpha-pheromone]
Inhibition (Botrytis cinerea b05.10; [13]): No | Inhibition (Botrytis cinerea b05.10; [14]): moderate inhibition and Some | Summary of CGI factor spectrum of activity (Botrytis cinerea b05.10; [15]): Yes | Inhibition (reduced disease severity of leaf discs) ([1]; 200 micromolar): reduced the disease severity and Yes | Summary of CGI factor spectrum of activity [1]: Yes | Inhibition [2]: did not show any inhibition and No | Summary of CGI factor spectrum of activity [2]: No | Inhibition [3]: Yes | Summary of CGI factor spectrum of activity [3]: Yes

N#Cc1c[nH]cc1-c1cccc2c1OC(F)(F)O2 [Fludioxonil]
Inhibition of conidial germination (Fusarium proliferatum; [10]): did not show any inhibition and No | Inhibition of conidial germination (Fusarium proliferatum; [4]): No | Inhibition of conidial germination (Fusarium proliferatum; [5]): Yes

WCTWKGQPCW [Pep105]
Inhibition (Botrytis cinerea b05.10): No | Summary of CGI factor spectrum of activity (Botrytis cinerea b05.10): No | Inhibition of conidial germination (Fusarium proliferatum): No and Yes

WCGRPGQPC (REGION 1..9: note = Botrytis spp.) [Pep106, B. cinerea Alpha-pheromone]
Inhibition (Botrytis cinerea b05.10; [13]): No | Inhibition (Botrytis cinerea b05.10; [14]): No | Summary of CGI factor spectrum of activity (Botrytis cinerea b05.10; [15]): No

RRRRRRRR [Pep462, Octaarginine (R8) cell-penetrating peptide (non-CGI peptide CONTROL)]
Inhibition (Botrytis cinerea b05.10; [13]): inhibited and Yes | Inhibition (Botrytis cinerea b05.10; [14]): inhibited and Yes | Summary of CGI factor spectrum of activity (Botrytis cinerea b05.10; [15]): completely inhibited conidial germination and Yes | Inhibition (reduced disease severity of leaf discs) ([1]; 20 micromolar): did not and No | Summary of CGI factor spectrum of activity [1]: No | Inhibition [2]: Yes | Summary of CGI factor spectrum of activity [2]: Yes | Inhibition [3]: Yes | Summary of CGI factor spectrum of activity [3]: Yes | Inhibition of conidial germination (Fusarium proliferatum; tested alone at 0.125 uM, 24 hours at 23° C.): No | Inhibition of conidial germination (Fusarium proliferatum; [8]): No | Inhibition of conidial germination (Fusarium proliferatum; [6]): No | Inhibition of conidial germination (Fusarium proliferatum; [7]): effective and Yes

WHWLQLKPGQPMYWHWLQLKPGQPMY (listed as Saccharomyces cerevisiae) [Pep301, S. cerevisiae Alpha-pheromone homodimer]
Inhibition (Botrytis cinerea b05.10; [13]): No | Inhibition (Botrytis cinerea b05.10; [14]): active and Yes | Summary of CGI factor spectrum of activity (Botrytis cinerea b05.10; [15]): completely inhibited conidial germination and Yes | Inhibition (reduced disease severity of leaf discs) ([1]; 20 micromolar): reduced the disease severity and Yes | Summary of CGI factor spectrum of activity [1]: Yes | Inhibition [2]: Yes | Summary of CGI factor spectrum of activity [2]: Yes | Inhibition [3]: Yes | Summary of CGI factor spectrum of activity [3]: Yes | Inhibition of conidial germination (Fusarium proliferatum; [8]): No | Inhibition of conidial germination (Fusarium proliferatum; [6]): No | Inhibition of conidial germination (Fusarium proliferatum; [7]): Yes

O=C(Nc1ccccc1-c1ccc(Cl)cc1)c1cccnc1Cl [Boscalid]
Inhibition of conidial germination (Fusarium proliferatum; [4]): neither boscalid nor trifloxystrobin showed any inhibition and No | Inhibition of conidial germination (Fusarium proliferatum; [5]): neither boscalid nor trifloxystrobin showed any inhibition and no inhibition and No

Cc1cc(C2CC2)nc(Nc2ccccc2)n1 [Cyprodinil]
inhibition at 50 µM (Botrytis (Strain B05.10); [11]): 73.6% | inhibition at 50 µM (Botrytis (Strain B05.10); [12]): 53.7% | inhibition at 100 µM (Botrytis (Strain B05.10); [12]): 74.8%

Reference: US20260223846A1, “PEPTIDE IN COMBINATION WITH FUNGICIDE COMPOSITIONS FOR FUNGAL CONTROL AND RELATED METHODS” (priority 2023, published 2026)
